Measurements published in the supplement of paper PMC10307832.

Tests used:
Assay in all cases: relative viability (nuclei count vs DMSO), 5 days (fraction); higher = more cells survive
[1] = system: NCI-H2228
Procedure, shortened: (§1)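 The day after seeding in 1536-well plates, lung cancer cell lines were treated by pin tool with a single drug, or with a fixed anchor-drug dose together with five library-drug doses (not always all listed) in √10 steps. After 5 days, a combined fix-and-stain solution (final 0.05% Triton X-100, 1% formaldehyde, 1 ug/ml Hoechst) was added. Nuclei counted on 4× images gave relative viability as treated counts over vehicle counts, reported as the median of duplicate plates.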

[2] = system: RERF-LC-KJ
Procedure, shortened: as §1

[3] = system: HCC-78
Procedure, shortened: as §1

[4] = system: NCI-H596
Procedure, shortened: as §1

[5] = system: NCI-H3122
Procedure, shortened: as §1

[6] = system: SK-MES-1
Procedure, shortened: as §1

[7] = system: NCI-H1993
Procedure, shortened: as §1

[8] = system: NCI-H1734
Procedure, shortened: as §1

[9] = system: NCI-H1355
Procedure, shortened: as §1

[10] = system: NCI-H2085
Procedure, shortened: as §1

[11] = system: NCI-H2347
Procedure, shortened: as §1

[12] = system: NCI-H2405
Procedure, shortened: as §1

[13] = system: NCI-H838
Procedure, shortened: as §1

[14] = system: LC-2-ad
Procedure, shortened: as §1

[15] = system: ChaGo-K-1
Procedure, shortened: as §1

[16] = system: HCC-366
Procedure, shortened: as §1

[17] = system: CAL-12T
Procedure, shortened: as §1

[18] = system: HOP-62
Procedure, shortened: as §1

[19] = system: NCI-H2009
Procedure, shortened: as §1

[20] = system: EMC-BAC-2
Procedure, shortened: as §1

[21] = system: PC-14
Procedure, shortened: as §1

[22] = system: SW 1573
Procedure, shortened: as §1

[23] = system: LK-2
Procedure, shortened: as §1

O=C(O)CCCCC(CCSCc1ccccc1)SCc1ccccc1 (stereo not given) [CPI-613] + COc1cccc2cc(-c3nc([C@H]4CC[C@H](C(=O)O)CC4)n4ncnc(N)c34)[nH]c12 [OSI-027] (partner 0.5 µM) was tested. Which relative viability ([1]; first compound 5 µM) did it give?
Its relative viability is 0.538.

And the relative viability ([1]; first compound 15.81 µM)?
Its relative viability is 0.467.

What about the relative viability ([1]; first compound 50 µM) of the same molecule?
Its relative viability is 0.525.

And the relative viability ([1]; first compound 158.11 µM)?
Its relative viability is 0.192.

What about the relative viability ([1]; first compound 500 µM) of the same molecule?
Its relative viability is 0.072.

What about the relative viability ([2]; first compound 5 µM) of the same molecule?
The relative viability was 0.553.

And the relative viability ([2]; first compound 15.81 µM)?
The relative viability was 0.491.

And the relative viability ([2]; first compound 50 µM)?
The relative viability was 0.513.

And the relative viability ([2]; first compound 158.11 µM)?
Its relative viability is 0.114.

And the relative viability ([2]; first compound 500 µM)?
Its relative viability is 0.0544.

What about the relative viability ([3]; first compound 5 µM) of the same molecule?
Its relative viability is 0.351.

What about the relative viability ([3]; first compound 15.81 µM) of the same molecule?
Its relative viability is 0.377.

What about the relative viability ([3]; first compound 50 µM) of the same molecule?
Its relative viability is 0.373.

What about the relative viability ([3]; first compound 158.11 µM) of the same molecule?
The relative viability was 0.351.

And the relative viability ([3]; first compound 500 µM)?
The relative viability was 0.4.

What about the relative viability ([4]; first compound 5 µM) of the same molecule?
The relative viability was 0.673.

What about the relative viability ([4]; first compound 15.81 µM) of the same molecule?
The relative viability was 0.623.

And the relative viability ([4]; first compound 50 µM)?
The relative viability was 0.832.

And the relative viability ([4]; first compound 158.11 µM)?
The relative viability was 0.489.

What about the relative viability ([4]; first compound 500 µM) of the same molecule?
Its relative viability is 0.0755.

And the relative viability ([5]; first compound 5 µM)?
The relative viability was 0.9.

And the relative viability ([5]; first compound 15.81 µM)?
The relative viability was 0.876.

And the relative viability ([5]; first compound 50 µM)?
Its relative viability is 0.7.

And the relative viability ([5]; first compound 158.11 µM)?
Its relative viability is 0.39.

And the relative viability ([5]; first compound 500 µM)?
Its relative viability is 0.045.

What about the relative viability ([6]; first compound 5 µM) of the same molecule?
Its relative viability is 0.592.

What about the relative viability ([6]; first compound 15.81 µM) of the same molecule?
The relative viability was 0.526.

What about the relative viability ([6]; first compound 50 µM) of the same molecule?
Its relative viability is 0.465.

What about the relative viability ([6]; first compound 158.11 µM) of the same molecule?
The relative viability was 0.12.

What about the relative viability ([6]; first compound 500 µM) of the same molecule?
Its relative viability is 0.0545.

What about the relative viability ([7]; first compound 5 µM) of the same molecule?
The relative viability was 0.531.

And the relative viability ([7]; first compound 15.81 µM)?
The relative viability was 0.572.

What about the relative viability ([7]; first compound 50 µM) of the same molecule?
The relative viability was 0.567.

What about the relative viability ([7]; first compound 158.11 µM) of the same molecule?
Its relative viability is 0.46.

What about the relative viability ([7]; first compound 500 µM) of the same molecule?
The relative viability was 0.375.

And the relative viability ([8]; first compound 5 µM)?
Its relative viability is 0.58.

And the relative viability ([8]; first compound 15.81 µM)?
Its relative viability is 0.55.

And the relative viability ([8]; first compound 50 µM)?
Its relative viability is 0.571.

And the relative viability ([8]; first compound 158.11 µM)?
Its relative viability is 0.325.

And the relative viability ([8]; first compound 500 µM)?
The relative viability was 0.1.

What about the relative viability ([9]; first compound 5 µM) of the same molecule?
The relative viability was 0.388.

What about the relative viability ([9]; first compound 15.81 µM) of the same molecule?
Its relative viability is 0.347.

What about the relative viability ([9]; first compound 50 µM) of the same molecule?
Its relative viability is 0.345.

And the relative viability ([9]; first compound 158.11 µM)?
The relative viability was 0.29.

What about the relative viability ([9]; first compound 500 µM) of the same molecule?
The relative viability was 0.0712.

And the relative viability ([10]; first compound 5 µM)?
Its relative viability is 0.727.

And the relative viability ([10]; first compound 15.81 µM)?
Its relative viability is 0.659.

And the relative viability ([10]; first compound 50 µM)?
Its relative viability is 0.787.

And the relative viability ([10]; first compound 158.11 µM)?
The relative viability was 0.308.

And the relative viability ([10]; first compound 500 µM)?
The relative viability was 0.112.

What about the relative viability ([11]; first compound 5 µM) of the same molecule?
The relative viability was 0.325.

And the relative viability ([11]; first compound 15.81 µM)?
The relative viability was 0.407.

What about the relative viability ([11]; first compound 50 µM) of the same molecule?
The relative viability was 0.336.

What about the relative viability ([11]; first compound 158.11 µM) of the same molecule?
The relative viability was 0.373.

What about the relative viability ([11]; first compound 500 µM) of the same molecule?
The relative viability was 0.456.

What about the relative viability ([12]; first compound 5 µM) of the same molecule?
Its relative viability is 0.638.

And the relative viability ([12]; first compound 15.81 µM)?
The relative viability was 0.582.

And the relative viability ([12]; first compound 50 µM)?
Its relative viability is 0.588.

What about the relative viability ([12]; first compound 158.11 µM) of the same molecule?
Its relative viability is 0.533.

What about the relative viability ([12]; first compound 500 µM) of the same molecule?
Its relative viability is 0.513.

What about the relative viability ([13]; first compound 5 µM) of the same molecule?
The relative viability was 0.354.

What about the relative viability ([13]; first compound 15.81 µM) of the same molecule?
Its relative viability is 0.335.

What about the relative viability ([13]; first compound 50 µM) of the same molecule?
The relative viability was 0.301.

What about the relative viability ([13]; first compound 158.11 µM) of the same molecule?
Its relative viability is 0.235.

And the relative viability ([13]; first compound 500 µM)?
The relative viability was 0.0809.

What about the relative viability ([14]; first compound 5 µM) of the same molecule?
The relative viability was 0.893.

What about the relative viability ([14]; first compound 15.81 µM) of the same molecule?
The relative viability was 0.744.

What about the relative viability ([14]; first compound 50 µM) of the same molecule?
The relative viability was 0.8.

And the relative viability ([14]; first compound 158.11 µM)?
The relative viability was 0.505.

And the relative viability ([14]; first compound 500 µM)?
The relative viability was 0.0505.

And the relative viability ([15]; first compound 5 µM)?
The relative viability was 0.61.

What about the relative viability ([15]; first compound 15.81 µM) of the same molecule?
The relative viability was 0.509.

And the relative viability ([15]; first compound 50 µM)?
Its relative viability is 0.53.

And the relative viability ([15]; first compound 158.11 µM)?
The relative viability was 0.377.

What about the relative viability ([15]; first compound 500 µM) of the same molecule?
Its relative viability is 0.0966.

What about the relative viability ([16]; first compound 5 µM) of the same molecule?
Its relative viability is 0.924.

What about the relative viability ([16]; first compound 15.81 µM) of the same molecule?
Its relative viability is 0.787.

And the relative viability ([16]; first compound 50 µM)?
Its relative viability is 1.08.

What about the relative viability ([16]; first compound 158.11 µM) of the same molecule?
The relative viability was 0.244.

And the relative viability ([16]; first compound 500 µM)?
Its relative viability is 0.0116.

What about the relative viability ([17]; first compound 5 µM) of the same molecule?
Its relative viability is 0.739.

And the relative viability ([17]; first compound 15.81 µM)?
The relative viability was 0.515.

What about the relative viability ([17]; first compound 50 µM) of the same molecule?
The relative viability was 0.593.

And the relative viability ([17]; first compound 158.11 µM)?
The relative viability was 0.0379.

And the relative viability ([17]; first compound 500 µM)?
Its relative viability is 0.0106.

What about the relative viability ([18]; first compound 5 µM) of the same molecule?
Its relative viability is 0.74.

And the relative viability ([18]; first compound 15.81 µM)?
The relative viability was 0.759.

What about the relative viability ([18]; first compound 50 µM) of the same molecule?
The relative viability was 0.799.

And the relative viability ([18]; first compound 158.11 µM)?
The relative viability was 0.477.

And the relative viability ([18]; first compound 500 µM)?
Its relative viability is 0.301.

And the relative viability ([19]; first compound 5 µM)?
The relative viability was 0.599.

And the relative viability ([19]; first compound 15.81 µM)?
Its relative viability is 0.58.

And the relative viability ([19]; first compound 50 µM)?
The relative viability was 0.46.

And the relative viability ([19]; first compound 158.11 µM)?
The relative viability was 0.0782.

And the relative viability ([19]; first compound 500 µM)?
The relative viability was 0.0289.

And the relative viability ([20]; first compound 5 µM)?
Its relative viability is 0.385.

And the relative viability ([20]; first compound 15.81 µM)?
The relative viability was 0.334.

What about the relative viability ([20]; first compound 50 µM) of the same molecule?
Its relative viability is 0.337.

What about the relative viability ([20]; first compound 158.11 µM) of the same molecule?
The relative viability was 0.181.

And the relative viability ([20]; first compound 500 µM)?
The relative viability was 0.0272.

And the relative viability ([21]; first compound 5 µM)?
The relative viability was 0.736.

What about the relative viability ([21]; first compound 15.81 µM) of the same molecule?
The relative viability was 0.756.

What about the relative viability ([21]; first compound 50 µM) of the same molecule?
The relative viability was 0.702.

What about the relative viability ([21]; first compound 158.11 µM) of the same molecule?
Its relative viability is 0.0567.

And the relative viability ([21]; first compound 500 µM)?
Its relative viability is 0.0096.

And the relative viability ([22]; first compound 5 µM)?
The relative viability was 0.592.

What about the relative viability ([22]; first compound 15.81 µM) of the same molecule?
Its relative viability is 0.444.

What about the relative viability ([22]; first compound 50 µM) of the same molecule?
Its relative viability is 0.498.

And the relative viability ([22]; first compound 158.11 µM)?
The relative viability was 0.0962.

And the relative viability ([22]; first compound 500 µM)?
The relative viability was 0.056.

And the relative viability ([23]; first compound 5 µM)?
Its relative viability is 0.189.

What about the relative viability ([23]; first compound 15.81 µM) of the same molecule?
The relative viability was 0.19.

What about the relative viability ([23]; first compound 50 µM) of the same molecule?
Its relative viability is 0.18.

What about the relative viability ([23]; first compound 158.11 µM) of the same molecule?
Its relative viability is 0.161.

And the relative viability ([23]; first compound 500 µM)?
Its relative viability is 0.128.
